Laboratory results as given in BindingDB's records for doi:10.1021/jm00087a023 (American Cyanamid, 1992).

Assay: Inhibition of PAF induced platelet aggregation in rabbit

CCCCCCCCCCCCCCOc1cccc(OP(=O)([O-])Oc2cccc(C[n+]3c[nH]c4ccccc43)c2)c1OC
IC50: 1.49 µM

CCCCCCCCCCCCCCCCOCC(COP(=O)(O)Oc1cccc(C[P+](c2ccccc2)(c2ccccc2)c2ccccc2)c1)OC (configuration not stated)
IC50: 13.6 µM
